Test results published in patent US5317022A, “Pharmaceutical composition and use” (priority 1991, dated 1994).
Entries after “also recorded” stand apart in the source; their conditions may differ. Counter-ions that a name gives are not always drawn. Like-named read-outs stand apart in the source and are kept apart here.

How the values were obtained:
rat [1] = test: analgetic effect, hot plate (rat); format: in vivo
rat [2] = test: analgetic effect, tail flick (rat); format: in vivo
rat [3] = test: animal or person; conditions: read-out: algolyt. test (rat) 100% activity
mice = test: analgetic effect, writhing test (mice); format: in vivo
rats = test: sedative (narcosis potentiating) effect, Inactine base narcotic, rats; format: in vivo
Protocol: Inactine (35 mg/kg) was used as a base narcotic.
*ED500 % = dose increasing narcosis to five times the control.

rabbits [4] = test: effects on respiration on conscious rabbits (III.5, Marey-drum)
Protocol: Investigation was carried out on conscious rabbits of both sexes and of 3-4 kg weight by way of a Marey-drum. Frequency and amplitude of respiration were quantitatively evaluated.

[5] = target: (^3 H)naloxone binding sites; test: competition binding assay with (3H)naloxone on rat brain membranes; conditions: membranes incubated with (3H)naloxone 1 nM and increasing ligand concentrations; read-out: Affinity constants (Ki nM) in competition assays
Protocol: (§1) Membrane preparation: A crude membrane fraction from rat brain (PVG/C strain) was prepared [Mol. Pharm.11 (1975) 340-351 and the protein content was defined [Anal. Biochem. 72(1976) 248-254).
(§2) The membrane suspension (200-400 μg protein) was incubated with the specific radioligand for 1 hour on ice. Incubations were terminated by rapid filtration under vacuo followed by washing with ice cold tris HCl buffer (50 mM, pH 7,4). Radioactivity was measured in a toluene based scintillation mixture on a LKB Minibeta Liquid Scintillation Spectrophotometer. Nonspecific binding was defined in the presence of 10 μM unlabeled naloxone. All assays were performed in triplicate and repeated several times. Ki values were determined from equilibrium experiments and calculated with the Tshang-Prusov equation. The data were evaluated using the Ligand program [Anal. Biol. Chem. 107 (1980) 220-239](Data shown on Table III/1).

[6] = target: (^3 H)naloxone binding sites; test: wash-resistant binding of (3H)naloxone, rat brain membranes; conditions: preincubated with (3H)naloxone 1 nM and test compound; remaining specific binding after several washings; average of 2-4 data; compound.HCl; read-out: Ki (nM), affinity constants
Protocol: as §1, §2
After preincubation a thorough washing was performed. [Life Sci. 32 (1983) 2777-2784]. Control values are represented by the specific binding of (3H)naloxone to membranes preincubated with a buffer and treated in the same way. Heterologous displacement experiments were used to evaluate the affinity of the investigated compounds for (^3 H)naloxone binding sites.

rabbits [7] = test: effect on respiration on conscious rabbits (III.6, type A/B/C tests); format: in vivo; set-up: resp. change ampl.: unit not given here
Protocol: The method as described above in Example III.5 was used on conscious rabbits of 2,5-3 kg weight. Registration was continued for 3-4 hours. The samples were injected under the skin of the neck and the respiration parameters were registered at intervals of 10 minutes.

[8] = Rattus norvegicus; read-out: hot plate (rat) ED50
[9] = Rattus norvegicus; read-out: tail flick (rat) ED50
[10] = Mus musculus; read-out: writhing test (mice) ED50
[11] = s.c. on rats, Inactine 35 mg/kg, dose as base
[12] = type A: DP 0.01 mg/kg s.c., 10'
[13] = type A: DP 0.01 mg/kg s.c., 20'
[14] = type A: DP 0.025 mg/kg s.c., 10'
[15] = type A: DP 0.025 mg/kg s.c., 20'
[16] = type A: DP 0.05 mg/kg s.c., 10'
[17] = type C: DP 0.25 mg/kg together with morphine 5 mg/kg s.c., 10'
[18] = type C: DP 0.25 mg/kg together with morphine 5 mg/kg s.c., 20'
[19] = type C: DP 0.25 mg/kg together with morphine 5 mg/kg s.c., 30'
[20] = type C: DP 0.25 mg/kg together with morphine 5 mg/kg s.c., 50'
[21] = Rattus norvegicus, read-out: hot plate (rat) ED50
[22] = Rattus norvegicus, read-out: tail flick (rat) ED50
[23] = Mus musculus, read-out: writhing test (mice) ED50
[24] = OX 0.5 mg/kg s.c. + naloxone 0.25 mg/kg, 10 min
[25] = OX 0.5 mg/kg s.c., 10 min (line before naloxone)
[26] = type A: OX 0.1 mg/kg s.c. +5 mg/kg morphine, 30 min
[27] = type A: OX 0.1 mg/kg s.c. +5 mg/kg morphine, 40 min
[28] = type A: OX 0.1 mg/kg s.c., 10 min
[29] = type A: OP 0.1 mg/kg s.c., 10 min
[30] = type A: OP 0.5 mg/kg s.c., 10 min
[31] = type A: OP 0.5 mg/kg s.c., then morphine 5 mg/kg s.c., 10 min
[32] = type A: OP 0.5 mg/kg s.c., then morphine 5 mg/kg s.c., 60 min
[33] = type B: morphine 5 mg/kg s.c., then OP 1.0 mg/kg s.c., 20 min
[34] = type B: morphine 5 mg/kg s.c., then OP 1.0 mg/kg s.c., 30 min
[35] = type C: OP 0.25 mg/kg with morphine 5 mg/kg s.c., 20 min
[36] = type C: OP 0.25 mg/kg with morphine 5 mg/kg s.c., 30 min
[37] = type C: OP 0.25 mg/kg with morphine 10 mg/kg s.c., 10 min
[38] = type C: OP 0.25 mg/kg with morphine 20 mg/kg s.c., 30 min

## COc1ccc2c3c1O[C@H]1C(=NNC(N)=S)CC[C@H]4[C@@H](C2)N(C)CC[C@]314 [Dihydrocodeinone thio-semicarbazone.HCl, Dihydrocodeinone thio-semicarbazone]
Rat [1]; [8]
  ED50: 1.7 mg/kg
Rat [2]; [9]
  ED50: 0.6 mg/kg
Rat [3]
  ED100: 5 mg/kg

## COc1ccc2c3c1O[C@H]1C(=O)CC[C@H]4[C@@H](C2)N(C)CC[C@]314 [Dihydrocodeinone, reference compound]
Rat [1]; [8]
  ED50: 2.2 mg/kg
Rat [2]; [9]
  ED50: 0.98 mg/kg
mice; [10]
  ED50: 0.9 mg/kg
rats; [11]
  ED500 % (dose increasing narcosis to five times the control): 1,9 mg/kg
Rabbits [4]; 10-5500 μg/kg i.v., s.c.
  respiration effect: depression
  respiration frequency/min.: .dwnarw.
  respiration volume: .dwnarw.
Rabbits [4]; rabbit, in vivo
  influence on the respiratory depression effect of morphine (in words): unambiguously potentiate the respiratory depression effect of morphine
Rabbits [4]; rabbit, in vivo, sc
  respiratory depression by the compound alone (in words): cause respiratory depression
Rat [3]
  ED100: 4.9 mg/kg

## COc1ccc2c3c1O[C@H]1C(=NO)CC[C@H]4[C@@H](C2)N(C)CC[C@]314 [Dihydrocodeinone-oxime, DIHYDROCODEINON-OXIME]
[5]
  Ki: 52 nM
[6]
  Ki: 53 nM
Rat [1]; [8]
  ED50: 4.2 mg/kg
Rat [2]; [9]
  ED50: 3.7 mg/kg
mice; [10]
  ED50: 0.38 mg/kg
Rat [3]
  ED100: 25 mg/kg

## COc1ccc2c3c1O[C@H]1C(=NNc4ccccc4)CC[C@H]4[C@@H](C2)N(C)CC[C@]314 [Dihydrocodeinone-phenylhydrazone]
[5]
  Ki: 323 nM
[6]
  Ki: 323 nM
Rat [1]; [8]
  ED50: 2.4 mg/kg
Rat [2]; [9]
  ED50: 2.3 mg/kg
rats; [11]
  ED500 % (dose increasing narcosis to five times the control): 3,5 mg/kg
Rabbits [7]; [12]
  resp. change ampl.: 0
  resp. change fr/min: +85
Rabbits [7]; [13]
  resp. change ampl.: 0
  resp. change fr/min: +96
Rabbits [7]; [14]
  resp. change ampl.: 0
  resp. change fr/min: +114
Rabbits [7]; [15]
  resp. change ampl.: 0
  resp. change fr/min: +114
Rabbits [7]; [16]
  resp. change ampl.: 0
  resp. change fr/min: +132
Rabbits [7]; [17]
  resp. change ampl.: 0
  resp. change fr/min: +39
Rabbits [7]; [18]
  resp. change ampl.: 0
  resp. change fr/min: +19
Rabbits [7]; [19]
  resp. change ampl.: 0
  resp. change fr/min: -3
Rabbits [7]; [20]
  resp. change ampl.: 0
  resp. change fr/min: -4
Rat [3]
  ED100: 10.1 mg/kg

## COc1ccc2c3c1O[C@H]1C(=NNC(N)=O)CC[C@H]4[C@@H](C2)N(C)CC[C@]314 [Dihydrocodeinone-semicarbazone.HCl, dihydrocodeinone-semicarbazone]
Rat [1]; [8]
  ED50: 0.38 mg/kg
Rat [1]; rat
  hot plate (rat) ED50: 0,38 mg/kg
Rat [2]; [9]
  ED50: 0.35 mg/kg
rats; [11]
  ED500 % (dose increasing narcosis to five times the control): 1,0 mg/kg
Rat [3]
  ED100: 10 mg/kg

## COc1ccc2c3c1O[C@H]1C(=NO)CC[C@@]4(O)[C@@H](C2)N(C)CC[C@]314 [Oxycodone-oxime, 14-HYDROXY-DIHYDROCODEINONE-OXIME]
[5]
  Ki: 32 nM
[6]
  Ki: 32 nM
Rat [1]; [21]
  ED50: 1.8 mg/kg
Rat [2]; [22]
  ED50: 1 mg/kg
mice; [23]
  ED50: 0.11 mg/kg
rats; rat, in vivo
  ED500 % (dose increasing narcosis to five times the control): 0,5 mg/kg
  potentiation of Inactine narcosis (in words): most effectively prolongated
Rabbits [7]; OX 0.005 mg/kg s.c., 30 min
  resp. change ampl.: +30
  resp. change fr/min: +30
Rabbits [7]; OX 0.025 mg/kg s.c., 30 min
  resp. change ampl.: 0
  resp. change fr/min: +28
Rabbits [7]; OX 0.1 mg/kg s.c., 30 min
  resp. change ampl.: +40
  resp. change fr/min: +47
Rabbits [7]; [24]
  resp. change ampl.: +50
  resp. change fr/min: +50
Rabbits [7]; [25]
  resp. change ampl.: -50
  resp. change fr/min: -50
Rabbits [7]; small doses
  respiration number (in words): considerably increase the respiration number
Rabbits [7]; [26]
  resp. change ampl.: 0
  resp. change fr/min: +71
Rabbits [7]; [27]
  resp. change ampl.: -40
  resp. change fr/min: -29
Rabbits [7]; [28]
  resp. change ampl.: +20
  resp. change fr/min: +57
Rat [3]
  ED100: 10 mg/kg

## COc1ccc2c3c1O[C@H]1C(=NNc4ccccc4)CC[C@@]4(O)[C@@H](C2)N(C)CC[C@]314 [Oxycodone-phenylhydrazone, 14-OH-DIHYDROCODEINONE-PHENYLHYDRAZONE (CIS)]
[5]
  Ki: 1150 nM
[6]
  Ki: 1150 nM
Rat [1]; [21]
  ED50: 0.8 mg/kg
Rat [2]; [22]
  ED50: 1.2 mg/kg
mice; [23]
  ED50: 1.2 mg/kg
rats; rat, in vivo
  ED500 % (dose increasing narcosis to five times the control): 1,5 mg/kg
Rabbits [4]; rabbit, in vivo
  influence on the respiratory depression effect of morphine (in words): partially antagonizes the effect of morphine
Rabbits [4]; rabbit, in vivo, sc
  respiration effect: no change; also recorded: slight stym
Rabbits [7]; [29]
  resp. change ampl.: +20
  resp. change fr/min: +33
Rabbits [7]; [30]
  resp. change ampl.: 0
  resp. change fr/min: +16
Rabbits [7]; [31]
  resp. change ampl.: -20
  resp. change fr/min: -17
Rabbits [7]; [32]
  resp. change ampl.: 0
  resp. change fr/min: 0
Rabbits [7]; [33]
  resp. change ampl.: +15
  resp. change fr/min: -16
Rabbits [7]; [34]
  resp. change ampl.: +20
  resp. change fr/min: -6
Rabbits [7]; [35]
  resp. change ampl.: +20
  resp. change fr/min: +44
Rabbits [7]; [36]
  resp. change ampl.: +30
  resp. change fr/min: +92
Rabbits [7]; [37]
  resp. change ampl.: +20
  resp. change fr/min: +23
Rabbits [7]; [38]
  resp. change ampl.: 0
  resp. change fr/min: -8
Rat [3]
  ED100: 10 mg/kg

## COc1ccc2c3c1O[C@H]1C(=NNC(N)=S)CC[C@@]4(O)[C@@H](C2)N(C)CC[C@]314 [Oxycodone-thiosemicarbazone.HCl, Oxycodone-thiosemicarbazone]
Rat [1]; [8]
  ED50: 8.5 mg/kg
Rat [2]; [9]
  ED50: 4.5 mg/kg
Rat [3]
  ED100: 100 mg/kg
